# Data reported in US12312378B2, “Glucosamine derivatives for the prevention or treatment of joint disorders” (RISEN (SUZHOU) PHARMA TECH CO., LTD., priority 2017, dated 2025).
# “Also recorded” adds a separate entry of the source. Marks after values point to notes of the source that are not given here.
# Key:
# [1] = humans, cited from earlier work
# MIA-induced OA rat model = test: Monosodium iodoacetate-induced osteoarthritis (MIA) model in rat knee; format: in vivo
# Procedure: Osteoarthritis was induced by intra-articular (i.a.) injection of MIA solution in the rat knee joint as follows: Briefly, rats were anesthetized with isoflurane and given a single i.a. administration of 2 mg of MIA dissolved in saline through the intrapatellar ligament of the right knee. MIA was administered in a volume of 50 μL. Basal readings were established using a group of control rats injected with 10% ethanol in water. Rats were randomized by initial body weight to groups of 6 or 7. After MIA injection, the MIA groups began treatment with either vehicle, or a test compound at a preset dose regime for a period of 28 days. Clinical observations were recorded, including body weight, joint swelling, and weight bearing, on pre-induction day (day 0), day 3, 5, 7, 14, 21 and/or 28. At the end of the study, the animals were euthanized by CO2 and sacrificed. Joint samples including the tibia and femur were sectioned in the coronal plane and stained using both H&E and Safranin-O. Knee joints were examined and scored for cartilage degeneration, the presence of osteophytes, the amount and extent of calcified cartilage and subchondral bone damage, and the amount of synovial membrane inflammation using the Osteoarthritis Research Society International (OARSI) scoring system put forth in 2010 (Kraus, V. B. et al., Osteoarthritis Cartilage, 2010, Suppl 3:S35-52).
# Studies of compound 16 in the MIA model were conducted as described above.
# [2] = system: MMT-induced model of osteoarthritis; test: Medial meniscus transection (MMT) model in rats; format: in vivo, rat; conditions: for Weight bearing (right paw, %), mean: G2, gavage 4 times every day
# Description: In the rat MMT model, the unilateral knee (right knee) was cleaned and prepped for surgery. An incision was made over the medial aspect of the femoro-tibial joint. The medial collateral ligament was exposed via blunt dissection and transected to reflect the meniscus toward the femur. A full thickness cut was made through the meniscus at its narrowest point. The joint space was returned to normal, and the skin was closed and the animal allowed to recover. For the present study, at second day post MMT induction animals, G1 and G2 animals were treatment with vehicle and test compound 16 respectively. Animals were dosed 4 times every day, and were dosed by gavage for 4 weeks.
# [3] = Pharmacokinetic study in SD rats: plasma GlcNBu after oral gavage of test compound; format: in vivo, Sprague-Dawley (SD) rats; parameters: key: (—): not detected; conditions: Table 5: plasma GlcNBu after oral administration of the indicated compound, 0.93 mmol/kg
# Procedure: A test compound is dissolved in water at a concentration determined by the desired dose and dosing volume for the specific animal to which the compound is to be administered. A calculated volume of dosing solution is administered to the animal (PO, SQ, IP, or IV). A blood sample is collected following administration of the test compound at specific time points (such as 0 minutes (min), 5 min, 10 min, 15 min, 30 min, 1 hour (h), 1.5 h, 2 h, 3 h, 4, 6 h, etc.). The blood sample is converted to a plasma sample using standard techniques. The plasma samples are analyzed to determine the concentration of the test compound and, in some cases, GlcNBu.
# According to the above general procedure, SD rats were grouped randomly into groups of six (n=6). The test compound, GlcNBu or a compound provided herein, was administered to the animals by oral gavage at a dose of 0.93 mmol/kg. For illustration purposes, GlcNBu was given at an oral dose of 232 mg/kg (0.93 mmol/kg), and compound 16 was administered at an equal molar dose (0.93 mmol/kg, i.e., 362 mg/kg). At pre-set time points, blood was taken through orbital venous plexus extraction, and the samples were analyzed using LC/MS-MS to determine the GlcNBu concentration in the plasma.
# In the figure, Curves labeled with -●- and -▴- represent plasma GlcNBu concentration following oral administration of GlcNBu (232 mg/kg, or 0.93 mmol/kg) and compound 16 ([…], or 0.93 mmol/kg), respectively. […] FIG. 2A and FIG. 2B show examples of other compounds of the invention, presented in plasma GlcNBu concentration versus time curves; a summary of pharmacokinetic parameters for these compounds is given in Table 4 and Table 5.
# OVX rat = conditions: GlcNBu feeding in the OVX rat; cited from earlier work
# [4] = rats; data from i.v., i.p., and p.o. studies; cited from earlier work
# [5] = system: destructive arthritis rat model; conditions: cited from earlier work
# [6] = rats; cited from earlier work
# [7] = G2, histopathology after 4 weeks of dosing
compound,measurement,setting,value
CC(=O)N[C@H]1C(O)O[C@H](CO)[C@@H](O)[C@@H]1O (stereo partly drawn) [N-acetylglucosamine],half-life compared with glucosamine,[1]; polyvalent or monovalent form,longer
"CCCC(=O)N[C@H]1C(O)O[C@H](COC(=O)CCC)[C@@H](OC(=O)CCC)[C@@H]1O (stereo partly drawn) [Compound 16, 2-N-4,6-O-tributyryl-D-glucosamine]","Weight bearing, mean","MIA-induced OA rat model; MIA rats, Group 2, 234 mg/kg, Day 3",32.07%
same,"Weight bearing, mean","MIA-induced OA rat model; MIA rats, Group 2, 234 mg/kg, Day 5",35.76** %
same,"Weight bearing, mean","MIA-induced OA rat model; MIA rats, Group 2, 234 mg/kg, Day 7",37.72%
same,"Weight bearing, mean","MIA-induced OA rat model; MIA rats, Group 2, 234 mg/kg, Day 14",40.86%
same,"Weight bearing, mean","MIA-induced OA rat model; MIA rats, Group 2, 234 mg/kg, Day 21",44.12%
same,"Weight bearing, mean","MIA-induced OA rat model; MIA rats, Group 2, 234 mg/kg, Day 28",45.90%
same,"Weight bearing, mean","MIA-induced OA rat model; MIA rats, Group 2, 234 mg/kg, Pre-Injection (Day 0) baseline",50.49%
same,"Weight bearing, mean","MIA-induced OA rat model; MIA rats, Group 3, 468 mg/kg, Day 3",34.56%
same,"Weight bearing, mean","MIA-induced OA rat model; MIA rats, Group 3, 468 mg/kg, Day 5",37.40** %
same,"Weight bearing, mean","MIA-induced OA rat model; MIA rats, Group 3, 468 mg/kg, Day 7",39.23%
same,"Weight bearing, mean","MIA-induced OA rat model; MIA rats, Group 3, 468 mg/kg, Day 14",41.68* %
same,"Weight bearing, mean","MIA-induced OA rat model; MIA rats, Group 3, 468 mg/kg, Day 21",44.25%
same,"Weight bearing, mean","MIA-induced OA rat model; MIA rats, Group 3, 468 mg/kg, Day 28",44.98%
same,"Weight bearing, mean","MIA-induced OA rat model; MIA rats, Group 3, 468 mg/kg, Pre-Injection (Day 0) baseline",50.25%
same,weight bearing on the back-right leg versus vehicle,"MIA-induced OA rat model; MIA rats, day 5, all compound-treated groups (234 and 468 mg/kg)",significant increases
same,weight bearing versus vehicle,"MIA-induced OA rat model; MIA rats, high dose (G3, 468 mg/kg), day 14",significant increases
same,osteophytes versus vehicle group,"MIA-induced OA rat model; MIA rats, high dose group (468 mg/kg), histology",significantly decreased
same,all other mean values for each histological parameter,"MIA-induced OA rat model; MIA rats, high dose treated group (468 mg/kg)",clear trend of lowering
same,articular cartilage degeneration,MIA-induced OA rat model; MIA-induced OA rat model,slowed
same,"degeneration changes of chondrocyte clustering, G2 compared with G1",[2],significantly lower; also recorded: significantly less
same,"values in all histology parameters, G2 versus G1",[2],lower
same,"weight bearing on the right paw, G2 compared with G1",[2]; Day 3 and Days 14-28,significantly increased; also recorded: significantly more
same,"Weight bearing (right paw, %), mean",[2]; Day 3,36.68* %
same,"Weight bearing (right paw, %), mean",[2]; Day 5,39.76%
same,"Weight bearing (right paw, %), mean",[2]; Day 7,40.68%
same,"Weight bearing (right paw, %), mean",[2]; Day 14,42.71* %
same,"Weight bearing (right paw, %), mean",[2]; Day 21,43.73** %
same,"Weight bearing (right paw, %), mean",[2]; Day 28,44.06** %
same,"Weight bearing (right paw, %), mean",[2]; Pre-injection baseline,49.55%
same,"Chondrocyte clustering (0-4), mean",[2]; [7],1.17*
same,"Degenerative changes in cartilage (0-4), mean",[2]; [7],1.17
same,"Inflammatory response in subchondral bone region (0-4), mean",[2]; [7],0.00
same,"Nature of predominant tissue (0-4), mean",[2]; [7],1.00
same,"Neo-vascularization (0-4), mean",[2]; [7],0.00
same,"Osteophytes (0-4), mean",[2]; [7],1.17
same,"Structural integrity (0-4), mean",[2]; [7],1.17
same,"Surface regularity (0-4), mean",[2]; [7],1.67
same,"Total scoring, mean",[2]; [7],7.33
"CCCC(=O)N[C@@H]1C(OC(=O)CCC)O[C@H](COC(=O)CCC)[C@@H](OC(=O)CCC)[C@@H]1O (stereo partly drawn) [Compound 74, 2-N-1,4,6-tri-O-tetrabutyryl-D-glucosamine]",AUC0-t,[3],662 ng·h/mL
same,AUC0-∞,[3],889 ng·h/mL
same,CLz/F,[3],367 mL/min/kg
same,Cmax,[3],426 ng/mL
same,Tmax,[3],0 h
same,t1/2z,[3],1 h
"CCCC(=O)N[C@H]1C(O)O[C@H](COC(=O)NCCCC(=O)O)[C@@H](O)[C@@H]1O (stereo partly drawn) [Compound 94, 2-N-butyryl-6-O-((3-carboxy-1-propyl)aminocarbonyl)-D-glucosamine]",AUC0-t,[3],(—)
same,AUC0-∞,[3],(—)
same,CLz/F,[3],(—)
same,Cmax,[3],(—)
same,Tmax,[3],(—)
same,Vz/F,[3],(—)
same,t1/2z,[3],(—)
"CCCC(=O)N[C@H]1C(OCc2ccccc2)O[C@H](CO)[C@@H](O)[C@@H]1O (stereo partly drawn) [Compound 75, 1-O-benzyl-2-N-butyryl-D-glucosamine]",AUC0-t,[3],(—)
same,AUC0-∞,[3],(—)
same,CLz/F,[3],(—)
same,Cmax,[3],(—)
same,Tmax,[3],(—)
same,Vz/F,[3],(—)
same,t1/2z,[3],(—)
"CCCC(=O)N[C@H]1C(O)O[C@H](CO)[C@@H](O)[C@@H]1O (stereo partly drawn) [GlcNBu, N-butyryl glucosamine]",bone mineral and some biomechanical properties,OVX rat,preserves
same,half-life,[4],about 20 min
same,subchondral bone structure,[5],preserved strikingly
"CCCC(=O)N[C@H]1C(O)O[C@H](COC(=O)CCC(=O)O)[C@@H](OC(=O)CCC(=O)O)[C@@H]1O (stereo partly drawn) [Compound 79, 2-N-butyryl-4,6-di-O-(4-hydroxy-4-oxo-butyryl)-D-glucosamine]",AUC0-t,[3],(—)
same,AUC0-∞,[3],(—)
same,CLz/F,[3],(—)
same,Cmax,[3],(—)
same,Tmax,[3],(—)
same,Vz/F,[3],(—)
same,t1/2z,[3],(—)
"CCCC(=O)N[C@H]1C(O)O[C@H](CO)[C@@H](O[C@@H]2O[C@H](CO)[C@@H](O)[C@H](O)[C@H]2O)[C@@H]1O (stereo partly drawn) [Compound 89, 2-N-butyryl-4-O-(D-glucopyranosyl)-D-glucosamine]",AUC0-t,[3],1757 ng·h/mL
same,AUC0-∞,[3],1942 ng·h/mL
same,CLz/F,[3],167 mL/min/kg
same,Cmax,[3],1110 ng/mL
same,Tmax,[3],2 h
same,t1/2z,[3],1 h
"CCCC(=O)N[C@H]1C(OCc2ccccc2)O[C@H](CO)[C@@H](O)[C@@H]1OCc1ccccc1 (stereo partly drawn) [Compound 76, 2-N-butyryl-1,3-di-O-benzyl-D-glucosamine]",AUC0-t,[3],(—)
same,AUC0-∞,[3],(—)
same,CLz/F,[3],(—)
same,Cmax,[3],(—)
same,Tmax,[3],(—)
same,Vz/F,[3],(—)
same,t1/2z,[3],(—)
"N[C@H]1C(O)O[C@H](CO)[C@@H](O)[C@@H]1O (stereo partly drawn) [Glucosamine, glucosamine]",serum levels,"[1]; very large doses, after oral or IV administration",cannot be detected
same,oral bioavailability (F),[6],0.19-0.21
